Measurements: patent US20220401414A1, “TREATMENT AND PREVENTION OF A NEURODEGENERATIVE DISORDER” (Inflazome Limited, priority 2019, published 2022)

Key:
[1] = test system: 6-OHDA mouse model of Parkinson's disease; assay: Studies C and D: LC-MS/MS quantification of striatal dopamine and metabolites in the 6-OHDA mouse model; type: in vivo, C57BL6 mice; conditions: 28 days after the 6-OHDA lesion
Procedure: To determine the oral efficacy of the compound of formula (I) in the 6-OHDA mouse model of Parkinson's disease.
8-week-old C57BL6 male mice (obtained from ARC, Perth, Australia) were housed under a 12-h light cycle in a SPF climate-controlled facility with food and water provided ad libitum for two weeks prior to study initiation. For treatment with the compound of formula (I), mice were dosed via oral gavage. Ten (10) mice in each group were dosed at 3 or 1 mg/kg, starting the day before (24 hr prior) stereotaxic surgery, and then QD until sacrifice.
6-OHDA (Sigma) was prepared immediately prior to surgeries. A sterile saline (0.9%) solution containing ascorbic acid (0.2%) was used as the vehicle to dissolve 6-OHDA. […]
Mice were sacrificed 1 week after the amphetamine test (day 28) and striatal tissue was micro-dissected, weighed and snap-frozen at −80° C. […] Striatal dopamine (DA) and its metabolites (DOPAC and HVA) were quantified in their stable derivative 3o form in the presence of internal standard 3,4-dihydroxybenzylamine (DHBA) using highly sensitive liquid chromatography-tandem mass spectrometry (LC-MS/MS) as described previously (Park et al., Biol. Pharm. Bull., 2013, vol. 36, pp. 252-8). […] For quantitation, one transition per analyte was monitored and two transitions per analyte were monitored for qualitative purposes. […]

[2] = test system: PFF-Synuclein model of Parkinson's disease; assay: Study H: LC-MS/MS quantification of striatal dopamine and metabolites in the PFF-Synuclein mouse model; type: in vivo, C57BL6 mice; conditions: ipsilateral striatum, 12 months
Excerpt: To determine the oral efficacy of the compound of formula (I) in a chronic progressive model of Parkinson's disease (PD), the preformed fibrils (PFF) mouse model, using a prophylactic and therapeutic dosing schedule.
8-week-old C57BL6 male mice (obtained from ARC, Perth, Australia) were housed under a 12-h light cycle in a SPF climate-controlled facility with food and water provided ad libitum for two weeks prior to study initiation. The compound of formula (I) (or water alone for control animals) was administrated to mice in drinking water at 0.3 mg/ml. Animals were separated into the groups described in Table 9, with ten animals initiated in each cohort. For prophylactic dosing, treatment commenced one day prior to PFF-Synuclein injection. For therapeutic dosing, treatment commenced 4 months after disease induction with PFF-Synuclein.
Recombinant human a-synuclein was obtained from rPeptide Inc., and in vitro fibril generation was performed with a final concentration of 2 mg/ml in phosphate-buffered saline (PBS) by incubation at 37° C. with agitation in an orbital mixer (400 rpm) for 7 days with daily cycles of sonication used to break down fibrillar aggregates as outlined in previously published reports (see Luk et al., Science, 2012, vol. 338(6109), pp. 949-53; and Zhang et al., Methods Mol. Biol., 2019, vol. 1948, pp. 45-57, which are incorporated in their entirety herein by reference). The generation of fibrillar α-synuclein species was confirmed by transmission electron microscopy and Thioflavin T fluorescence prior to use.
. The lesion was performed using a 5 μl Hamilton syringe to deliver either vehicle or human PFF-Synuclein (8 μg) at the following coordinates relative to bregma: AP: +0.5 mm; ML: −2.0 mm; DV: −3.0 mm into the right dorsal striatum according to the stereotaxic atlas (“The mouse brain in stereotaxic coordinates” by Paxinos and Franklin, 1997). After drilling a 1 mm burr-hole in the skull, a 2 μl volume of solution was infused at the target site at the rate of 0.2 μl per minute. The needle was held in place for at least 5 minutes after injection to minimize retrograde flow along the needle tract. […]
At 12 months mice were sacrificed and striatal tissue was micro-dissected, weighed and snap-frozen at −80° C. […] Striatal dopamine (DA) and its metabolites (DOPAC and HVA) were quantified in their stable derivative form in the presence of internal standard 3,4-dihydroxybenzylamine (DHBA) using highly sensitive liquid chromatography-tandem mass spectrometry (LC-MS/MS) as described previously (Park et al., Biol. Pharm. Bull., 2013, vol. 36(2), pp. 252-8). […] For quantitation, one transition per analyte was monitored and two transitions per analyte were monitored for qualitative purposes.

[3] = prophylactic and therapeutic treated mice

CC(C)n1ccc(S(=O)(=O)NC(=O)Nc2c3c(cc4c2CCC4)CCC3)n1 [compound of formula (I)]
striatal dopamine (with metabolites DOPAC and HVA) ([1]; Study C, 3 mg/kg oral QD): significantly protected against the loss of dopamine | striatal dopamine ([1]; Study D, 3 mg/kg oral daily): significantly protected against the loss of dopamine with improved efficacy compared to MCC950 | striatal DOPAC compared to the untreated PFF mice [2, 3]: significantly higher | striatal HVA compared to the untreated PFF mice [2, 3]: significantly higher | striatal dopamine concentrations compared with untreated PFF-syn mice ([2]; prophylactic, P<0.02): significantly higher striatal dopamine concentrations | striatal dopamine concentrations compared with untreated PFF-syn mice ([2]; therapeutic, P<0.05): significantly higher striatal dopamine concentrations
